Among the data in PMC4791597 (Scientific Reports, 2016) are Kd values, retold here.

The experiment addresses T1, PrP^C (cellular prion protein) (Mus musculus, UniProt P04925).
T1 construct: gene Prnp
The format is binding.

T1 sequence (P04925 23-230 limits assumed): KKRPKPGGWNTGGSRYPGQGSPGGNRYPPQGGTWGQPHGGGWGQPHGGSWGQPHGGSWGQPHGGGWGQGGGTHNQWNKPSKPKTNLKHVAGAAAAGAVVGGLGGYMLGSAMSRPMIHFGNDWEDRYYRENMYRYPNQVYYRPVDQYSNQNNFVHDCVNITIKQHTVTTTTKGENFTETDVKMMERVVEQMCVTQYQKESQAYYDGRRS

Turning to `C[n+]1ccc(C2=C3C=CC(=N3)C(c3cc[n+](C)cc3)=c3ccc4[n]3[Fe+][n]3c2ccc3C(c2cc[n+](C)cc2)=C2C=CC(=N2)C=4c2cc[n+](C)cc2)cc1` [Fe(III)-TMPyP], the Kd was 1210 nM.

The term Kd denotes the equilibrium constant for the complex coming apart. A lower Kd goes with higher affinity.
